The target of one assay is Misshapen-like kinase 1 (Homo sapiens, UniProt Q8N4C8). As to the kind of experiment: Selectivity interaction (Ambit KINOMEscan and KiNATiv profiling in Jurkat cells) EUB0000090b MINK1. It is filed as cell-based. The settings on record: at 1 µM.
Assay [1] deals with T1, Inhibitor of nuclear factor kappa-B kinase subunit beta (Homo sapiens) (UniProt O14920).
T1 sequence (whole entry): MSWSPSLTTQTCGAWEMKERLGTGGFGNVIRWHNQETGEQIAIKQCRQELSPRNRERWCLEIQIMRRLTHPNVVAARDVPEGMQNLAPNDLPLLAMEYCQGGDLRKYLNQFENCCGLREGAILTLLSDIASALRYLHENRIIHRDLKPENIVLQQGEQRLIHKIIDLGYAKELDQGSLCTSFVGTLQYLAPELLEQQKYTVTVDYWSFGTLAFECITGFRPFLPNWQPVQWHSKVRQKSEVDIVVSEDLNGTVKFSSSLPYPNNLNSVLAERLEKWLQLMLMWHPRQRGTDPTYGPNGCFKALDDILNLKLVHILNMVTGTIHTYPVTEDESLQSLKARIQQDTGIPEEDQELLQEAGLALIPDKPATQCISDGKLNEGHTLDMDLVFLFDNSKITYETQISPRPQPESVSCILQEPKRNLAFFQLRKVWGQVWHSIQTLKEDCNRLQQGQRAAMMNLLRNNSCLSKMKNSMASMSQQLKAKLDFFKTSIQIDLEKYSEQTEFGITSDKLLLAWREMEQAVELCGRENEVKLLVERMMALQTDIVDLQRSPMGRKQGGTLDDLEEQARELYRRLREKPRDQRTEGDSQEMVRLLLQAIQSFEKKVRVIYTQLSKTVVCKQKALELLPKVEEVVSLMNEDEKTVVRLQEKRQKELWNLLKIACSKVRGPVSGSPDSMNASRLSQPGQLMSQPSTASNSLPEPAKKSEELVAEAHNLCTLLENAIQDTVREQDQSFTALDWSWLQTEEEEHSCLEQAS
As to the kind of experiment: Selectivity interaction (Ambit KINOMEscan and KiNATiv profiling in Jurkat cells) EUB0000090b IKBKB. It is filed as cell-based. The settings on record: at 1 µM.

The target in assay [2] is Calcium/calmodulin-dependent protein kinase kinase 1 (Homo sapiens) (UniProt Q8N5S9). The assay can be described thus: Selectivity interaction (KinomeScan (DiscoverX)) EUB0000607a CAMKK1. The settings on record: at 10 µM.
Calcium/calmodulin-dependent protein kinase kinase 1 (Homo sapiens), sequence (Q8N5S9 whole entry, looked up): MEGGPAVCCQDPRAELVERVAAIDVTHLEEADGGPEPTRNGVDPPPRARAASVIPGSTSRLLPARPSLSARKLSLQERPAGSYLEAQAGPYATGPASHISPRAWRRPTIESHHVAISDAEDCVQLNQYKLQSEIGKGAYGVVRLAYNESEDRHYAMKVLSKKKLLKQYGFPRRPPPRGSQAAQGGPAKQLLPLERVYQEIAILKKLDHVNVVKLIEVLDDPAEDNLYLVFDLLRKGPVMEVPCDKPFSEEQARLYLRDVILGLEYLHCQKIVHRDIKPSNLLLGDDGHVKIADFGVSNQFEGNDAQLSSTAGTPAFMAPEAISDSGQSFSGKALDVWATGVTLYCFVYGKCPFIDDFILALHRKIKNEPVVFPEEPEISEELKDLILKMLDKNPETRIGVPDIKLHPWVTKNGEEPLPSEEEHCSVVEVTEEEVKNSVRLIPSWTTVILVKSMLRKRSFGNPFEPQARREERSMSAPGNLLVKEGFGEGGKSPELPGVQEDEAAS
The target in assay [3] is Cyclin-dependent kinase 18 (Homo sapiens) (UniProt Q07002). The conditions noted are these: at 10 µM.
For assay [4], the target named is Hepatocyte growth factor-like protein (Homo sapiens) (UniProt P26927). As to the kind of experiment: Selectivity interaction (KinomeScan (DiscoverX)) EUB0000666a MST1. The settings on record: at 10 µM.
The target in assay [5] is Mitogen-activated protein kinase 7 (Homo sapiens) (UniProt Q13164). As to the kind of experiment: Selectivity interaction (ProQinase) EUB0000171b MAPK7.
Mitogen-activated protein kinase 7 (Homo sapiens), sequence (Q13164 2-816 limits assumed): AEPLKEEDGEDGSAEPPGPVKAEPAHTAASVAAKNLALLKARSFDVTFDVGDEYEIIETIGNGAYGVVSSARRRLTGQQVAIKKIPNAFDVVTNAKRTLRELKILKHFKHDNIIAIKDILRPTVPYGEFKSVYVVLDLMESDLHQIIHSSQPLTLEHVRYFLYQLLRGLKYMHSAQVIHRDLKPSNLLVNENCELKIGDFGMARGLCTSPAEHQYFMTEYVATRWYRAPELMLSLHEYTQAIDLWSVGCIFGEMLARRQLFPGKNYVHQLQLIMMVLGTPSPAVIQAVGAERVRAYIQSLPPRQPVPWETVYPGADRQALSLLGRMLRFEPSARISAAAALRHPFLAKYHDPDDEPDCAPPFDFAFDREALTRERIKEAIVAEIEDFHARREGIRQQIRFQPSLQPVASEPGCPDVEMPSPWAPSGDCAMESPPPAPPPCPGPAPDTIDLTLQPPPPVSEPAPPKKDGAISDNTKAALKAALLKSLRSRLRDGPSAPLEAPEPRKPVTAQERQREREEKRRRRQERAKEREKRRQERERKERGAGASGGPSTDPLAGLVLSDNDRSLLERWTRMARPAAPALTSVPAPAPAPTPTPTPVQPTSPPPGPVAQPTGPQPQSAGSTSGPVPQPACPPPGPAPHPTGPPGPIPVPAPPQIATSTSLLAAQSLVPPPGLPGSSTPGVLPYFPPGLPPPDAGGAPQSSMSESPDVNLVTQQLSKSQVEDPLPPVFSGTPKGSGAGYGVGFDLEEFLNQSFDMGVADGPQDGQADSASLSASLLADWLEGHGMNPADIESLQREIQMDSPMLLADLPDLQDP
Assay [6] concerns the target T2, Non-receptor tyrosine-protein kinase TNK1 (Homo sapiens) (UniProt Q13470).
T2 sequence (whole entry): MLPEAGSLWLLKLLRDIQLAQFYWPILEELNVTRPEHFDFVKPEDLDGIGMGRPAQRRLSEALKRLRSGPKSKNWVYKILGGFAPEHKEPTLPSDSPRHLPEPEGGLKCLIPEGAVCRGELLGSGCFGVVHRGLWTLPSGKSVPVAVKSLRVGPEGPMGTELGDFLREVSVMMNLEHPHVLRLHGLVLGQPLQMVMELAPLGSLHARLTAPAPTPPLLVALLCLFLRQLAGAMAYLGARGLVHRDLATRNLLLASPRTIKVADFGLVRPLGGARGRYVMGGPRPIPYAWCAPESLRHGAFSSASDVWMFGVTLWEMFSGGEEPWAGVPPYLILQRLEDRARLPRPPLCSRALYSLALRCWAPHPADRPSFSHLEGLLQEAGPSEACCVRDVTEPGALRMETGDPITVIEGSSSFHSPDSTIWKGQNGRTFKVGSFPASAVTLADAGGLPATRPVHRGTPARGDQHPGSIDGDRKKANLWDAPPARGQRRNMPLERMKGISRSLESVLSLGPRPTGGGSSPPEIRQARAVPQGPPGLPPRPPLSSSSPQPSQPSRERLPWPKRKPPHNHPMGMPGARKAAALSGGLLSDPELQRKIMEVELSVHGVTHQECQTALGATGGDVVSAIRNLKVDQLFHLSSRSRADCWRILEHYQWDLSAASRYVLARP
As to the kind of experiment: Selectivity interaction (ProQinase) EUB0000171b TNK1.

In assay [7] the target is Protein polybromo-1 (Homo sapiens) (UniProt Q86U86). The assay can be described thus: Selectivity interaction (Human bromodomain panel (DSF assay)) EUB0000233b PBRM1.
Assay [8] has as its target Rho-associated protein kinase 2 (Homo sapiens, UniProt O75116). As to the kind of experiment: Selectivity interaction (KinomeScan (DiscoverX)) EUB0000092b ROCK2. The settings on record: at 10 µM.
Assay [9] deals with Ephrin type-A receptor 2 (Homo sapiens) (UniProt P29317). The assay can be described thus: Selectivity interaction (Kinase panel (DSF assay)) EUB0001559a EPHA2. (DSF heats the sample and reads unfolding from a dye or from intrinsic fluorescence.)
Ephrin type-A receptor 2 (Homo sapiens), sequence (P29317 whole entry): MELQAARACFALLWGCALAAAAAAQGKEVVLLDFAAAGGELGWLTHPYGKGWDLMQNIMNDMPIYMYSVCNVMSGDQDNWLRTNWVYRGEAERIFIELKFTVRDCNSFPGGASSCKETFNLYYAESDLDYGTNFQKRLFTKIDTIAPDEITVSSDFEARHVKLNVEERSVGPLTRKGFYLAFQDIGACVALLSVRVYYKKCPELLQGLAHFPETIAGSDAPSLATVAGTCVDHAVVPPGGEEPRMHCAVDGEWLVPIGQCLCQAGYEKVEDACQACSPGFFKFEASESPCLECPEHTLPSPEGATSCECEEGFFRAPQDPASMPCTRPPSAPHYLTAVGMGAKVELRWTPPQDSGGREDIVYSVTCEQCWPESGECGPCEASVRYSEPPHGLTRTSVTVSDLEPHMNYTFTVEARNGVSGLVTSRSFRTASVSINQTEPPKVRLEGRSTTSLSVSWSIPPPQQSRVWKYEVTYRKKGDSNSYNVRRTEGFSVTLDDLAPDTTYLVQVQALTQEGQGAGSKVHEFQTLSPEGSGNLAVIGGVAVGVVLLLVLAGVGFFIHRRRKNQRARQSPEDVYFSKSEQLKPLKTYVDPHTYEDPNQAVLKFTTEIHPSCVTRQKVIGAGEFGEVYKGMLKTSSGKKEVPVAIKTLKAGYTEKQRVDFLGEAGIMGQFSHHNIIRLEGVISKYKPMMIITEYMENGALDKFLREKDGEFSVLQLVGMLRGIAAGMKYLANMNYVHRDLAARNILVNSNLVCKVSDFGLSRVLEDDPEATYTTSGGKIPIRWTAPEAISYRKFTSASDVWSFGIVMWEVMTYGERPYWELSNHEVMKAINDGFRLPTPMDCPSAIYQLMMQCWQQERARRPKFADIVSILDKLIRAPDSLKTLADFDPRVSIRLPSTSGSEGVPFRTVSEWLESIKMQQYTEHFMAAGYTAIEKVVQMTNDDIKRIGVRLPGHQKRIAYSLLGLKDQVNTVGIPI
For assay [10], the target named is T3, cGMP-dependent protein kinase 1 (Homo sapiens) (UniProt Q13976).
T3 sequence (whole entry): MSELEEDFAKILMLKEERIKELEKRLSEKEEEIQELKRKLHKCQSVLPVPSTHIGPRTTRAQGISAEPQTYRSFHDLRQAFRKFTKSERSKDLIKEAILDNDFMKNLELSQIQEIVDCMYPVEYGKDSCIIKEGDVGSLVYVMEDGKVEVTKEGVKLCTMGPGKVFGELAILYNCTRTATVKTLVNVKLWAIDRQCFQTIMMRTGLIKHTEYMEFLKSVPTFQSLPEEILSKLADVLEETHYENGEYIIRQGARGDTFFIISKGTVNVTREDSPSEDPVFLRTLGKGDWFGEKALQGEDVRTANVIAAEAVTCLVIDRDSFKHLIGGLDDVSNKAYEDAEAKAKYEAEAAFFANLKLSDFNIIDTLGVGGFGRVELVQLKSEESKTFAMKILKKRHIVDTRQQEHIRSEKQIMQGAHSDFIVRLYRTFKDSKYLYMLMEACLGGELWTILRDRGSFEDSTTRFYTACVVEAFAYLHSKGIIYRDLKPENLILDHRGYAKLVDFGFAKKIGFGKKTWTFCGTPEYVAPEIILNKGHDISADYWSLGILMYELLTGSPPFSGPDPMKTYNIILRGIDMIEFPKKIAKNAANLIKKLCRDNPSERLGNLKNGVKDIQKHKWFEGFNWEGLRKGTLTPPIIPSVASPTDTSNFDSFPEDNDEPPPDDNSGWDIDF
As to the kind of experiment: Selectivity interaction (KinomeScan (DiscoverX)) EUB0000595a PRKG1. The conditions noted are these: at 10 µM.

Rho-associated protein kinase 2, sequence (O75116 whole entry, looked up): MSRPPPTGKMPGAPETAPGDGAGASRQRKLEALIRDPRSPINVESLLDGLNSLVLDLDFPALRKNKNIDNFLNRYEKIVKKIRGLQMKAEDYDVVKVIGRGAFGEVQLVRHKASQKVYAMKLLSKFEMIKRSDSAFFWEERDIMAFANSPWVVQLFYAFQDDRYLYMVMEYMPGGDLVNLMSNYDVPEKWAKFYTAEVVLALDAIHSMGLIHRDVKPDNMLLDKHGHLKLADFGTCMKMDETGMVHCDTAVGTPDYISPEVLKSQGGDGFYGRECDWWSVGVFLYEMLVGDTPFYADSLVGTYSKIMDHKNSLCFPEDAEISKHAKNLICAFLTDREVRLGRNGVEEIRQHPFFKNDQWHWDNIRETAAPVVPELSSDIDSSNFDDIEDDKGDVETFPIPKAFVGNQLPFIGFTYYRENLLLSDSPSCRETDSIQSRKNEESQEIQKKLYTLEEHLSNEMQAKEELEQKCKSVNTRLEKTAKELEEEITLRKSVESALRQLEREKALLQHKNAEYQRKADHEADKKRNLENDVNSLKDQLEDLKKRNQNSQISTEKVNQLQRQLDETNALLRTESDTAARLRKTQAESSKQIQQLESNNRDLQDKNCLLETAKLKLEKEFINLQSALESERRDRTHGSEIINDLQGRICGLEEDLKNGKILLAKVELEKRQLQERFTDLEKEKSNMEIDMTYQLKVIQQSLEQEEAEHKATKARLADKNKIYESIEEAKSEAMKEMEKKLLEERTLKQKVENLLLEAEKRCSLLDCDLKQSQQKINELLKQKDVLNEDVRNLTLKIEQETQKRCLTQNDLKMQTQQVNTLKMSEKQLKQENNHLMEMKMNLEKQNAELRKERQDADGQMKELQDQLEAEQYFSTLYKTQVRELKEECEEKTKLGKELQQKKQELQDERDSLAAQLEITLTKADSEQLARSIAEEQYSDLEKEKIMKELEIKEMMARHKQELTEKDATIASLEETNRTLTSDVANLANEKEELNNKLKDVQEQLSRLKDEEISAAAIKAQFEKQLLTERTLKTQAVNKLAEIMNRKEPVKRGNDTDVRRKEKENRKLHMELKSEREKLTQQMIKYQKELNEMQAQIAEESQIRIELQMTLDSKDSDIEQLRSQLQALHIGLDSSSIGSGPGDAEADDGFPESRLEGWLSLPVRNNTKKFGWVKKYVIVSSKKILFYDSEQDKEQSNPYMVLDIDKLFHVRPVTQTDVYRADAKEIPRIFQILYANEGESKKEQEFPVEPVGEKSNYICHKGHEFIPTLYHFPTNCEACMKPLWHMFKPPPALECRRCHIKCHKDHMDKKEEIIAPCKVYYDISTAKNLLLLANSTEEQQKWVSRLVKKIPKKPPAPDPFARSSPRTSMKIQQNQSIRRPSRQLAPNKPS
Misshapen-like kinase 1, sequence (Q8N4C8 whole entry, looked up): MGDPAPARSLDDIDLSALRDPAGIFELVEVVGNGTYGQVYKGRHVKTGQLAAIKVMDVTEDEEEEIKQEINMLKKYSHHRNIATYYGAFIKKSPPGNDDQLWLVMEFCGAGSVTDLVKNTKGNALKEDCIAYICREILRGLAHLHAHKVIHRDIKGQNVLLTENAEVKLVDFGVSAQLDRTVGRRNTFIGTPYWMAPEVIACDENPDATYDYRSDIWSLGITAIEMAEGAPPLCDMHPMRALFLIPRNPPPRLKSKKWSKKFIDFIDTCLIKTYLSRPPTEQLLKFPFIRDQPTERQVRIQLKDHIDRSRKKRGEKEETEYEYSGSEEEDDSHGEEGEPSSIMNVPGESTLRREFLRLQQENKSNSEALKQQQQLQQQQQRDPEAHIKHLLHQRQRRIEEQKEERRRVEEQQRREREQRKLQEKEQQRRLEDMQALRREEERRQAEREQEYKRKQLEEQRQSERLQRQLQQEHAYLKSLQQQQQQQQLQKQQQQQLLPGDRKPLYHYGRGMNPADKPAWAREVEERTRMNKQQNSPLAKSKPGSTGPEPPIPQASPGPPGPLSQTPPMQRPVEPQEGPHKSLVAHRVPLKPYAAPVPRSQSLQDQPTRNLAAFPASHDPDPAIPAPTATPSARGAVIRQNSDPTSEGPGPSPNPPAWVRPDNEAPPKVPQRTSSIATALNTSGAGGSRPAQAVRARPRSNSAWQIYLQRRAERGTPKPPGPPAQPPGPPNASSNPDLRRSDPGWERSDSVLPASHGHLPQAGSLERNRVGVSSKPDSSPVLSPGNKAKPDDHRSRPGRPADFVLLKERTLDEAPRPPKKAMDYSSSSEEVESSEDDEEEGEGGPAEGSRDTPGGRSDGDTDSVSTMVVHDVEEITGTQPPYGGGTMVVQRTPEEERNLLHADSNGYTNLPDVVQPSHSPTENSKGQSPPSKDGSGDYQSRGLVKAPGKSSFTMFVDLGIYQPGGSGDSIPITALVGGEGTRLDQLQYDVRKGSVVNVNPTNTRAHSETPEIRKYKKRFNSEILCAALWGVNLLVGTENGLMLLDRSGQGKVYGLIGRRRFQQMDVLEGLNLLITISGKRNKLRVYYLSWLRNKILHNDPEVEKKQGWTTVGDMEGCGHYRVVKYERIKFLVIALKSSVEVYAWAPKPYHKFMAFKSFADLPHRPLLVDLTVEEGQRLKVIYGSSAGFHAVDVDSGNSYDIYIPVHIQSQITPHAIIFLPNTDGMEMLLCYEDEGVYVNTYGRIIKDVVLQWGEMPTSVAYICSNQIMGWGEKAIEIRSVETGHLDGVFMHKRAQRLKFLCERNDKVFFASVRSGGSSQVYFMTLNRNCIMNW

Consider `CN(C)C/C=C/C(=O)Nc1ccc(C(=O)N2CCCC(Nc3ncc(Cl)c(-c4c[nH]c5ccccc45)n3)C2)cc1` (stereo not drawn), for which the values for the % of control (at Misshapen-like kinase 1; in [1]) were 89% and 73%, respectively.

As for `CNC(=O)Nc1ccc(-c2nc(N3CC4CCC(C3)O4)c3cnn(C4CCC5(CC4)OCCO5)c3n2)cc1`, the % of control in assay [2] stood at 100%.

`Cc1cc([C@@H](C)Nc2ccccc2C(=O)O)c2nc(N3CCOCC3)cc(=O)n2c1` [AZD-6482] showed a % of control in assay [3] of 100%.

For the molecule `O=C(NOC[C@H](O)CO)c1ccc(F)c(F)c1Nc1ccc(I)cc1F`, in assay [4], the % of control was found to be 100%.

For the molecule `C=CC(=O)Nc1cccc(C(=O)Nc2ccc(Nc3cc(-c4[nH]c(SC)nc4C)ccn3)cc2)c1`, the % of control in assay [5] (at 1 µM) stood at 83%; in [5] (at 5 µM), 73%; in [6] (at 1 µM), 91%; in assay [6] (at 5 µM), 61%.

In turn, `CN(C)CCCOc1ccc(-c2cc(NCCCn3cccn3)nc(S(C)(=O)=O)n2)cc1` showed a dTM in [7] below 2 K.

In turn, `CCC(=O)N1CCN(c2ccc(-n3c(=O)ccc4cnc5ccc(-c6cnc7ccccc7c6)cc5c43)cc2C(F)(F)F)CC1` came in with a % of control in [8] of 50%.

Molecule `CN(C(=O)c1cnn2cccnc12)c1cc2c(cc1N1CCOCC1)C(=O)N(C[C@@H](F)C(C)(C)O)C2` registered a dTM in [9] of -0.4 K.

Molecule `COCC(=O)NC/C=C/c1ccc2ncnc(Nc3ccc(Oc4ccc(C)nc4)c(C)c3)c2c1` [CP-724714] displayed a % of control in assay [10] of 100%.

The values above are taken from ChEMBL document CHEMBL5465560, “Selectivity Literature for EUbOPEN Chemogenomic Library” (2024).
